pEC50, pIC50: −log10 of the molar value.
Tests used:
[1] = system: genotype 1a-H77 subgenomic replicon cell line; experiment: microbe, parasite or virus in culture; format: cell-based, HCV; conditions: Hepatitis C virus, 72 h, read-out: EC50 1a
[2] = system: genotype 1b-Con1 subgenomic replicon cell line; experiment: microbe, parasite or virus in culture; format: cell-based, HCV; conditions: Hepatitis C virus, 72 h, read-out: EC50 1b
[3] = biological target: T1, HCV polymerase 1A (Δ21 NS5B) (Hepatitis C virus genotype 1a, UniProt P27958); experiment: HCV Polymerase Inhibition Assay (1a); format: biochemical
T1 construct: 20 to 50nM Δ21 NS5B
Method: The reaction was initiated by the addition of 20μM CTP, 20μM ATP, 1μM ^3H-UTP (10mCi/umol), 5nM template RNA and 0.1 U/μl RNase inhibitor (RNasin, Promega), and allowed to proceed for 2 to 4h at room temperature. Reaction volume was 50μl. The reaction was terminated by the addition of 1 volume of 4mM spermine in 10mM Tris-Cl pH 8.0, 1mM EDTA. After incubation for at least 15 min at room temperature, the precipitated RNA was captured by filtering through a GF/B filter (Millipore) in a 96 well format. The filter plate was washed three times with 200μl each of 2mM spermine, 10mM Tris-Cl pH 8.0, lmM EDTA, and 2 times with ethanol. After air-drying, 30μl of Microscint 20 scintillation cocktail (Packard) was added to each well, and the retained cpm were determined by scintillation counting. […] Retained cpm were plotted vs. inhibitor concentration and fit to equation 1 using non-linear regression (ref. 1) to obtain the IC50 values: Retained cpm=A[sqrt{(IC50+It−Et)^2+4*IC50*Et}−([…])]
Ref. Morrison, J. F. and S. R. Stone. […] Approaches to the study and analysis of the inhibition of enzymes by slow- and tight-binding inhibitors. Comments Mol. Cell. Biophys.
(§1) The sequence of the template RNA used was: 5′-[…]-3′

[4] = biological target: T2, HCV polymerase 1B (Δ21 NS5B) (Hepatitis C virus genotype 1b, UniProt P26663); experiment: biochemical
T2 construct: 20 to 50nM Δ21 NS5B
Method: Either two-fold serial dilutions (fractional inhibition assay) or a narrower range of dilutions spanning the IC50 of the inhibitor (tight binding assay) of the inhibitors were incubated with 20mM Tris-Cl pH 7.4, 2 mM MnCl2, 1 mM dithiothreitol, 1 mM ethylene diamine tetraacetic acid (EDTA), 60 to 125μM GTP and 20 to 50nM Δ21 NS5B (HCV Strain 1B (BK, Genbank accession number M58335, or H77, Genbank accession number AF011751)) for 15min at room temperature. The reaction was initiated by the addition of 20μM CTP, 20μM ATP, 1μM ^3H-UTP (10mCi/umol), 5nM template RNA and 0.1 U/μl RNase inhibitor (RNasin, Promega), and allowed to proceed for 2 to 4h at room temperature. Reaction volume was 50μl. The reaction was terminated by the addition of 1 volume of 4mM spermine in 10mM Tris-Cl pH 8.0, 1mM EDTA. After incubation for at least 15 min at room temperature, the precipitated RNA was captured by filtering through a GF/B filter (Millipore) in a 96 well format. The filter plate was washed three times with 200μl each of 2mM spermine, 10mM Tris-Cl pH 8.0, lmM EDTA, and 2 times with ethanol. After air-drying, 30μl of Microscint 20 scintillation cocktail (Packard) was added to each well, and the retained cpm were determined by scintillation counting. […] Retained cpm were plotted vs. inhibitor concentration and fit to equation 1 using non-linear regression (ref. 1) to obtain the IC50 values: Retained cpm=A[sqrt{(IC50+It−Et)^2+4*IC50*Et}−([…])]
Ref. Morrison, J. F. and S. R. Stone. 1985. Approaches to the study and analysis of the inhibition of enzymes by slow- and tight-binding inhibitors. Comments Mol. Cell. Biophys. 2: 347-368.
as §1

T2 sequence (P26663 2420-2989, stated change not applied): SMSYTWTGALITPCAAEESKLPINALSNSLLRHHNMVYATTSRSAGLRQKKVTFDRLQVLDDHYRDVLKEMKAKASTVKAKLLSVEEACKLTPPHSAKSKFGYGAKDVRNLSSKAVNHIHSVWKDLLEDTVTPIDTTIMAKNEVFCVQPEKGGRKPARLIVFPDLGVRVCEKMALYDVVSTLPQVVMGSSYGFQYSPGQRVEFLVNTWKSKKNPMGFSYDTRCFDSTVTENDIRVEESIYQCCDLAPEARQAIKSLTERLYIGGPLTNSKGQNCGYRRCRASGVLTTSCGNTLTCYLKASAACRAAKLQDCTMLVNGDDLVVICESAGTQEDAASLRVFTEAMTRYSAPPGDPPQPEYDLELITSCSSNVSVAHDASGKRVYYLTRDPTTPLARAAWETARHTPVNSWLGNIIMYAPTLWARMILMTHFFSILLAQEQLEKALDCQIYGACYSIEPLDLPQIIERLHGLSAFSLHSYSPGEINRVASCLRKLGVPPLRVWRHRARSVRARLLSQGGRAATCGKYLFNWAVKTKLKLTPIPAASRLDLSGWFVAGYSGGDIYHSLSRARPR
T1 sequence (P27958 2421-2990, stated change not applied): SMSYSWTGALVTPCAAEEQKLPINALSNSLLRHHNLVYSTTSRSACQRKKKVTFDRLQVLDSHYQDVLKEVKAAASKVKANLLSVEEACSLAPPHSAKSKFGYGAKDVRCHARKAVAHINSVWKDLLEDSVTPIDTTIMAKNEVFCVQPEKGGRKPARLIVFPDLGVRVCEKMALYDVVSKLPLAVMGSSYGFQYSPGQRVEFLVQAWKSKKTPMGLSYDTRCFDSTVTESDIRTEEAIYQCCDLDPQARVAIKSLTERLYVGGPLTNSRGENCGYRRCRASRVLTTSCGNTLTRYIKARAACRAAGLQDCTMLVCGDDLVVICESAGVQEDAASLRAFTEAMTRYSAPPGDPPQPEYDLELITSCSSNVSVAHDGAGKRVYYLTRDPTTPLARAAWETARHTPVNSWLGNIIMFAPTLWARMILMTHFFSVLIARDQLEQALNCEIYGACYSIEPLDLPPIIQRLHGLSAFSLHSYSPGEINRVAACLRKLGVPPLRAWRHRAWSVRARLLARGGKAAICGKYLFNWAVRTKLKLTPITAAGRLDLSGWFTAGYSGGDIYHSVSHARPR

SMILES | pEC50 [1] | pEC50 [2] | pIC50 [3] | pIC50 [4]
COc1c(-c2ccc3c(c2)CC[C@@H]3CNS(C)(=O)=O)cc(-n2ccc(=O)[nH]c2=O)cc1C(C)(C)C (single isomer, unassigned) [IB-L0-2.9] | > 8.00 | > 8.00 |  | 
COc1c(-c2ccc3c(c2)CC[C@H]3CNS(C)(=O)=O)cc(-n2ccc(=O)[nH]c2=O)cc1C(C)(C)C (single isomer, unassigned) [IB-L0-2.15] | 6.00 to 7.00 | 7.00 to 8.00 |  | 
COc1c(-c2ccc3c(c2)CC[C@@H]3C(C)(C)NS(C)(=O)=O)cc(-n2ccc(=O)[nH]c2=O)cc1C(C)(C)C (single isomer, unassigned) [IB-L0-2.22] | 6.00 to 7.00 | 7.00 to 8.00 |  | 
COc1c(-c2ccc3c(c2)CC[C@H]3C(C)(C)NS(C)(=O)=O)cc(-n2ccc(=O)[nH]c2=O)cc1C(C)(C)C (single isomer, unassigned) [IB-L0-2.37] | < 6.00 | 6.00 to 7.00 |  | 
CC(C)(C)c1cc(-c2ccc3c(c2)CC/C3=N\NS(C)(=O)=O)cc(-n2ccc(=O)[nH]c2=O)c1 [IB-L0-2.7, (E)-N-(5-(3-tert-butyl-5-(2,4-dioxo-3,4-dihydropyrimidin-1(2H)-yl)phenyl)-2,3-dihydro-1H-inden-1-ylidene)methanesulfonohydrazide] | 6.00 to 7.00 | 7.00 to 8.00 |  | 
COc1c(-c2ccc3c(CNS(C)(=O)=O)csc3c2)cc(-n2ccc(=O)[nH]c2=O)cc1C(C)(C)C [IB-L0-2.11] | 7.00 to 8.00 | > 8.00 |  | 
COc1c(-c2ccc3c(c2)CCC3(F)CNS(C)(=O)=O)cc(-n2ccc(=O)[nH]c2=O)cc1C(C)(C)C (centres unmarked) [IB-L0-2.12, N-((5-(3-tert-butyl-5-(2,4-dioxo-3,4-dihydropyrimidin-1(2H)-yl)-2-methoxyphenyl)-1-fluoro-2,3-dihydro-1H-inden-1-yl)methyl)methanesulfonamide] | 7.00 to 8.00 | > 8.00 |  | 
COc1c(-c2ccc3c(c2)CC=C3CNS(C)(=O)=O)cc(-n2ccc(=O)[nH]c2=O)cc1C(C)(C)C [IB-L0-2.13] | 7.00 to 8.00 | > 8.00 |  | 
COc1c(-c2ccc3c(c2)CC=C3CN(C)S(C)(=O)=O)cc(-n2ccc(=O)[nH]c2=O)cc1C(C)(C)C [IB-L0-2.16] |  |  | > 8.00 | 7.00 to 8.00
COc1c(-c2ccc3c(c2)CCC3CNS(C)(=O)=O)cc(-n2ccc(=O)[nH]c2=O)cc1C(C)(C)C (centres unmarked) [IB-L0-2.17, N-((5-(3-tert-butyl-5-(2,4-dioxo-3,4-dihydropyrimidin-1(2H)-yl)-2-methoxyphenyl)-2,3-dihydro-1H-inden-1-yl)methyl)methanesulfonamide] | 7.00 to 8.00 | > 8.00 |  | 
COc1c(-c2ccc3c(CNS(C)(=O)=O)coc3c2)cc(-n2ccc(=O)[nH]c2=O)cc1C(C)(C)C [IB-L0-2.18] | 6.00 to 7.00 | 7.00 to 8.00 |  | 
COc1c(-c2ccc3c(CN(C)S(C)(=O)=O)csc3c2)cc(-n2ccc(=O)[nH]c2=O)cc1C(C)(C)C [IB-L0-2.21] | 6.00 to 7.00 | 7.00 to 8.00 |  | 
COC(=O)NN=C1CCc2cc(-c3cc(-n4ccc(=O)[nH]c4=O)cc(C(C)(C)C)c3OC)ccc21 [IB-L0-2.24, methyl 2-(5-(3-tert-butyl-5-(2,4-dioxo-3,4-dihydropyrimidin-1 (2H)-yl)-2-methoxyphenyl)-2,3-dihydro-1H-inden-1-ylidene)hydrazinecarboxylate] | 7.00 to 8.00 | 7.00 to 8.00 |  | 
COc1c(-c2ccc3c(c2)CCC3(C)CNS(C)(=O)=O)cc(-n2ccc(=O)[nH]c2=O)cc1C(C)(C)C (centres unmarked) [IB-L0-2.25, N-((5-(3-tert-butyl-5-(2,4-dioxo-3,4-dihydropyrimidin-1(2H)-yl)-2-methoxyphenyl)-1-methyl-2,3-dihydro-1H-inden-1-yl)methyl)methane sulfonamide] | 6.00 to 7.00 | 7.00 to 8.00 |  | 
COc1c(-c2ccc3c(c2)CCC3C(C)(C)NS(C)(=O)=O)cc(-n2ccc(=O)[nH]c2=O)cc1C(C)(C)C (centres unmarked) [IB-L0-2.29, N-(2-(5-(3-tert-butyl-5-(2,4-dioxo-3,4-dihydropyrimidin-1(2H)-yl)-2-methoxyphenyl)-2,3-dihydro-1H-inden-1-yl)propan-2-yl)methanesulfonamide] | 6.00 to 7.00 | 7.00 to 8.00 |  | 
COc1c(-c2ccc3c(c2)CCC3C(=O)NS(C)(=O)=O)cc(-n2ccc(=O)[nH]c2=O)cc1C(C)(C)C (centres unmarked) [IB-L0-2.34, 5-(3-tert-butyl-5-(2,4-dioxo-3,4-dihydropyrimidin-1(2H)-yl)-2-methoxyphenyl)-N-(methylsulfonyl)-2,3-dihydro-1H-indene-1-carboxamide] | < 6.00 | 6.00 to 7.00 |  | 
CC(C)(C)c1cc(-n2ccc(=O)[nH]c2=O)cc(-c2ccc3c(CNS(C)(=O)=O)csc3c2)c1Cl [IB-L0-2.35, N-((6-(3-tert-butyl-2-chloro-5-(2,4-dioxo-3,4-dihydropyrimidin-1(2H)-yl)phenyl)benzo [b]thiophen-3-yl)methyl)methanesulfonamide] | < 6.00 | 6.00 to 7.00 |  | 
COc1c(-c2ccc3c(c2)CCC3O)cc(-n2ccc(=O)[nH]c2=O)cc1C(C)(C)C (centres unmarked) [IB-L0-2.36, 1-(3-tert-butyl-5-(1-hydroxy-2,3-dihydro-1H-inden-5-yl)-4-methoxyphenyl)pyrimidine-2,4(1H,3H)-dione] | 6.00 to 7.00 | 7.00 to 8.00 |  | 
COc1c(-c2ccc3cc(CNS(C)(=O)=O)sc3c2)cc(-n2ccc(=O)[nH]c2=O)cc1C(C)(C)C [IB-L0-2.40] | < 6.00 | 6.00 to 7.00 |  | 
COc1c(-c2ccc3c(c2)CCC3NS(C)(=O)=O)cc(-n2ccc(=O)[nH]c2=O)cc1C(C)(C)C (centres unmarked) [IB-L0-2.44, N-(5-(3-tert-butyl-5-(2,4-dioxo-3,4-dihydropyrimidin-1(2H)-yl)-2-methoxyphenyl)-2,3-dihydro-1H-inden-1-yl)methanesulfonamide] | < 6.00 | < 6.00 |  | 
CCCNc1nc2ccc(-c3cc(-n4ccc(=O)[nH]c4=O)cc(C(C)(C)C)c3OC)cc2s1 [IB-L0-2.46, 1-(3-tert-butyl-4-methoxy-5-(2-(propylamino)benzo[d]thiazol-6-yl)phenyl)pyrimidine-2,4(1H,3H)-dione] |  |  | 6.00 to 7.00 | 6.00 to 7.00
COc1c(-c2ccc3nc(-n4c(C)ccc4C)sc3c2)cc(-n2ccc(=O)[nH]c2=O)cc1C(C)(C)C [IB-L0-2.47, 1-(3-tert-butyl-5-(2-(2,5-dimethyl-1H-pyrrol-1-yl)benzo[d]thiazol-6-yl)-4-methoxyphenyl)pyrimidine-2,4(1H,3H)-dione] |  |  | < 6.00 | < 6.00
COc1c(-c2ccc3cc(NS(C)(=O)=O)ccc3n2)cc(-n2ccc(=O)[nH]c2=O)cc1C(C)(C)C [IB-L0-2.48, N-(2-(3-tert-butyl-5-(2,4-dioxo-3,4-dihydropyrimidin-1(2H)-yl)-2-methoxyphenyl)quinolin-6-yl)methanesulfonamide] |  |  | < 6.00 | < 6.00
COc1c(-c2ccc3c(c2)CCC3=O)cc(-n2ccc(=O)[nH]c2=O)cc1C(C)(C)C [IB-L0-2.50, 1-(3-tert-butyl-4-methoxy-5-(1-oxo-2,3-dihydro-1H-inden-5-yl)phenyl)pyrimidine-2,4(1H,3H)-dione] | 6.00 to 7.00 | 6.00 to 7.00 |  | 
COc1c(-c2ccsc2)cc(-n2ccc(=O)[nH]c2=O)cc1-c1ccc2c(c1)CC=C2CNS(C)(=O)=O [IB-L0-2.62] | 6.00 to 7.00 | 7.00 to 8.00 |  | 
COc1c(-c2ccc3c(c2)CC=C3CNS(C)(=O)=O)cc(-n2ccc(=O)[nH]c2=O)cc1-c1cccs1 [IB-L0-2.63] | 6.00 to 7.00 | 7.00 to 8.00 |  | 
COc1c(-c2ccc3c(c2)CC=C3CNS(C)(=O)=O)cc(-n2ccc(=O)[nH]c2=O)cc1-c1ccco1 [IB-L0-2.65] | 6.00 to 7.00 | 7.00 to 8.00 |  | 
COc1c(-c2ccoc2)cc(-n2ccc(=O)[nH]c2=O)cc1-c1ccc2c(c1)CC=C2CNS(C)(=O)=O [IB-L0-2.67] | 6.00 to 7.00 | 7.00 to 8.00 |  | 
